US20100063027A1, “Amine Derivative Having NPY Y5 Receptor Antagonistic Activity” (SHIONOGI & CO., LTD., priority 2006, published 2010)

Columns and labels:
[1] = Transportability through the blood-brain barrier (brain Kp) in mice; assay type: in vivo; settings: male, Jcl;C57BL/6J, mouse, brain (relative to plasma), intravenous administration, without cyclosporin A, read-out: brain Kp value (KpCont.), blood-brain partition coefficient
Protocol: (§1) Transportability of the compounds of the present invention through the blood-brain barrier (blood-brain partition coefficient; Kp) in mice (Jcl;C57BL/6J mice, ♂, 7 weeks) was defined from the difference in concentration of the compounds between in plasma and in brain after intravenous administration of the compounds (0.5 mg/2 mIAg). The brain Kp value of Compound (1-72) (KpCont.) was 1.29 showing high transportability through the blood-brain barrier.

P-gp [2] = molecular target: T1, P-gp (Mus musculus, UniProt P21447); assay: Potential for drug-drug interactions through P-gp in vivo (Kp with or without cyclosporin A); settings: mice, with versus without cyclosporin A (20 mg/kg)
T1 construct: effectively excreted through P-gp from the brain to vessels; from tissue; host or cells: brain / blood-brain barrier of living Jcl;C57BL/6J mice
T1 sequence (P21447 whole entry): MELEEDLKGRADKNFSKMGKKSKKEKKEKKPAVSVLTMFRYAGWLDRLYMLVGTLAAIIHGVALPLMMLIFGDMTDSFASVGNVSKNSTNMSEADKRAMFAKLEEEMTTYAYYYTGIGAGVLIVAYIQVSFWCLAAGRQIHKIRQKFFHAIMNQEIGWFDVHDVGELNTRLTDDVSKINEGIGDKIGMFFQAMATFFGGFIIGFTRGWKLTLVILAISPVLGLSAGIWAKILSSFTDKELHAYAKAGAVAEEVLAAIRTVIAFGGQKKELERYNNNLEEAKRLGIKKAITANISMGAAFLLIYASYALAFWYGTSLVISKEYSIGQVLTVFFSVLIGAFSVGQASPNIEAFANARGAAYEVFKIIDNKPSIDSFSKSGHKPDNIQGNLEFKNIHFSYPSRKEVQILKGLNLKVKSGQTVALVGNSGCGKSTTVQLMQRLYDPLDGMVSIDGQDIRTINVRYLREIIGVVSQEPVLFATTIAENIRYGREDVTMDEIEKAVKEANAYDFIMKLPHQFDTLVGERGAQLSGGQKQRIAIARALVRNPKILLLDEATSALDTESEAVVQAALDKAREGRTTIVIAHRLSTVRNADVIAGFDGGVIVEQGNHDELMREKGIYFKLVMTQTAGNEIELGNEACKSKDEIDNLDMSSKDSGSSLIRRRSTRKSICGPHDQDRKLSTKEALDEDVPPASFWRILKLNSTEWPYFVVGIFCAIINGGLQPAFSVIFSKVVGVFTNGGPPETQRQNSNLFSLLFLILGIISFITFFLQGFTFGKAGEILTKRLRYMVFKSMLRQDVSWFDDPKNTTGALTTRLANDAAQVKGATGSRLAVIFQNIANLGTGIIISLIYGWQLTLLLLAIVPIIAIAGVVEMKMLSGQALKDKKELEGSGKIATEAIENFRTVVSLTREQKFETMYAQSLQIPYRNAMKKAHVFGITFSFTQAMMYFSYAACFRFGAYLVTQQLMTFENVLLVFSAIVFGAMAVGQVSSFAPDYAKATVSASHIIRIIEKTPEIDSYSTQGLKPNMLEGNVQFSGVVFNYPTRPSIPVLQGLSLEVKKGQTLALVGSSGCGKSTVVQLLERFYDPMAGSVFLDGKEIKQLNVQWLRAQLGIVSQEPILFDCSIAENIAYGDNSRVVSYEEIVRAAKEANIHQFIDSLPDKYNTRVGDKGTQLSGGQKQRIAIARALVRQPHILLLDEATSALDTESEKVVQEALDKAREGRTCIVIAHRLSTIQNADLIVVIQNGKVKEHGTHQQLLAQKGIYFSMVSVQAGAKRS
Protocol: as §1
(§2) To examine the potential for drug-drug interactions through P-gp in vivo, the Kp values of compounds of the present invention with (KpCSA) or without (KpCont.) cyclosporin A (20 mg/kg), a P-gp inhibitor, were calculated. The KpCSA value of Compound (I-72) was 1.14, and the calculated KpCSA/KpCont. ratio was 0.9.
(§3) On the other hand the potential for drug-drug interactions through P-pg of amide compound B which has similar structure of Compound (I-72) was also examined in mice. The KpCont. and KpCSA were 0.04 and 0.84, respectively.

P-gp [3] = system: T2, P-gp; assay: as above; settings: male, Jcl;C57BL/6J, mouse, brain (relative to plasma); mice, intravenous administration, with cyclosporin A (20 mg/kg), a P-gp inhibitor; read-out: KpCSA value
T2 construct: effectively excreted through P-gp from the brain to vessels; from tissue; host or cells: brain / blood-brain barrier of living Jcl;C57BL/6J mice
Protocol: as §1, §2, §3

human NPY Y5 receptor = molecular target: T3, human NPY Y5 receptor (Homo sapiens, UniProt Q15761); assay: Affinity for NPY Y5 receptor ([125I] peptide YY binding, CHO cell membranes); settings: [125I] peptide YY 60 pM, 25° C., 2 hours
T3 construct: expressed in transfected cells; membranes used
T3 sequence (Q15761 1-445): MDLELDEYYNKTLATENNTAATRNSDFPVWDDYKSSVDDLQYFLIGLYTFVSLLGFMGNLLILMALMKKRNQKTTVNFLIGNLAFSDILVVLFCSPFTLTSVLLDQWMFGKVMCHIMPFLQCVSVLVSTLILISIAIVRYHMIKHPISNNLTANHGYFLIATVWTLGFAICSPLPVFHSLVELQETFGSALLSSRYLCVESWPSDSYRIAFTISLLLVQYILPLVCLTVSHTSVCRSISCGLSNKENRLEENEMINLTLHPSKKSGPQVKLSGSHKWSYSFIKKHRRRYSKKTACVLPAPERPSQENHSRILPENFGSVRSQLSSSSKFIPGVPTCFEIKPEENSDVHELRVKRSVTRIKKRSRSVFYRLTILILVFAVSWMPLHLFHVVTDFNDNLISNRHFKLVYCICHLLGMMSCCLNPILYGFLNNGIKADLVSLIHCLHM
Source text: cDNA sequence encoding a human NPY Y5 receptor (WO96/16542) was cloned in a vector (pME18S, Takebe et al. Mol. Cell. Biol. 8, 8957). The obtained expression vector was transfected into CHO cells as a host by using Lipofect AMINE reagent (Trademark, Gico BRL Co., Ltd.) according to the instruction manual. The cells that stably express NPY Y5 receptor were obtained.
The membranes prepared from the CHO cells expressing NPY Y5 receptor, the compound of the present invention and 30,000 cpm [^125I] peptide YY (60 pM of final concentration: Amersham) were incubated in the assay buffer (20 mM HEPES-Hanks buffer containing 0.1% bovine serum albumin, pH 7.4) at 25° C. for 2 hours, and then the membrane was filtered from the mixture through a glassfilter (GF/C) presoaked with 1% polyethyleneimine. After washing with 50 mM Tris-HCl buffer (pH 7.4), radioactivity retained on the filters was quantified with a gamma counter. Nonspecific binding was defined as the amount of radioactivity bound to the membranes after incubation in the presence of 200 nM of peptide YY. The 50% inhibitory concentration of the test compound against the specific peptide YY binding (IC50 value) was calculated (Inui, A. et al. Endocrinology 131, 2090-2096 (1992)).

Row | Compound | IC50 (human NPY Y5 receptor) [nM] | other results
1 | C[C@@H]1CN(c2ccc(NC[C@H]3CC[C@H](NS(=O)(=O)C(C)(C)C)CC3)cc2)C[C@H](C)O1 [Compound I-72] |  | melting point: 147 to 149 °C; Kp [1]: 1.29; KpCSA/KpCont. ratio (P-gp [2]): 0.9; Kp (P-gp [3]): 1.14
2 | CCCn1c(=O)oc2cc(NC[C@H]3CC[C@H](NS(=O)(=O)CC)CC3)ccc21 [Ii-16] | 2.5 | 
3 | CC(C)S(=O)(=O)NC[C@H]1CC[C@H](Nc2ccc(C(F)(F)F)cn2)CC1 [Ij-1] | 0.7 | 
4 | CC(C)S(=O)(=O)NC[C@H]1CC[C@H](Nc2ccc(OC3CCCC3)nn2)CC1 [Ij-52] | 0.27 | 
5 | CCS(=O)(=O)N[C@H]1CC[C@H](CNc2cc(-c3ccccc3)on2)CC1 [Ii-44] | 3.4 | 
6 | CC(C)(C)S(=O)(=O)NC[C@H]1CC[C@H](Nc2nc3ccc(C(F)(F)F)cc3s2)CC1 [Ij-66] | 0.39 | 
7 | CC(C)(C)S(=O)(=O)NC[C@H]1CC[C@H](Nc2ccc3ccccc3n2)CC1 [Ij-59] | 2.5 | 
8 | CC1CC(C)CN(c2cccc(NC[C@H]3CC[C@H](NS(=O)(=O)C(C)(C)C)CC3)c2)C1 (stereo partly drawn) [Ii-1] | 0.1 | 
9 | CCS(=O)(=O)N[C@H]1CC[C@H](CNc2ccc(S(=O)(=O)c3ccc(F)cc3)cc2)CC1 [Ii-34] | 11 | 
10 | C[C@@H]1CN(c2ccc(NC(=O)[C@H]3CC[C@H](NS(=O)(=O)C(C)(C)C)CC3)cc2)C[C@H](C)O1 [compound B, reference compound] |  | Kp [1]: 0.04; KpCSA/KpCont. ratio (P-gp [2]): 20.5; Kp (P-gp [3]): 0.84
